Experimental data published in patent US20220175787A1, “PATIENT SELECTION FOR ENHANCEMENT OF ANTI-TUMOR IMMUNITY IN CANCER PATIENTS” (G1 Therapeutics Inc., priority 2019, published 2022).

Legend:
[1] = system: TNBC with high or low Ayers immune signature score; assay: G1T28-04 survival by Ayers IFN-γ Signature / Expanded Immune Signature score; format: in vivo, human; conditions: Groups 2+3 (Group 4) vs Group 1
Procedure: Tumor samples from patients participating in the clinical trial described in Example 1 where assayed by Q^2 Solutions (Morrisville, N.C.) to determine their Ayers Immune Scores according to Ayers et al., IFN-γ-related mRNA Profile Predicts Clinical Response to PD-1 Blockade, J Clin Invest. 2017127(8)2930-2940. The data was processed using RNA Access, and FPKM normalization prior to log 10 transformation and averaging was performed.
89 samples were analyzed. The calculated signature score for both the IFN-γ Signature and Expanded Immune Signature were unimodel in distribution, and the median score was used to define the “High” and “Low” categories.
Survival and response rates between treatment groups within pre-defined immune response groups were determined using a series of pair-wise, two-group tests based on the data derived in the G1T28-04 clinical trial described in Example 1. Additionally, examination of differences in survival and response rates between different immune response categories within a single treatment group were analyzed.
Kaplan-Meier curves were generated to visualize the overall survival and progression free survival among groups (see FIGS. 8C-8F and 9A-9D). […]

[2] = system: TNBC classified C2 IFN-γ Dominant or not; assay: G1T28-04 survival by Thorsson Six Class Immune Signature; format: in vivo, human; conditions: TNBC classified as C2 IFN-γ Dominant; Groups 2+3 (Group 4) vs Group 1; p=0.036
Description: Tumor samples from patients participating in the clinical trial (Clinical trials.gov identifier NCT02978716) described in Example 1 where assayed by Q^2 Solutions (Morrisville, N.C.) to determine their Six Class Immune Classification as described in Thorsson V, et al. “The Immune Landscape of Cancer.” Immunity, […], 2018, pp. 812-830. doi: 10.1016/j.immuni.2018.03.023 (incorporated herein by reference in its entirety).
Briefly, a six-step procedure was implemented to apply the Thorsson et al. classification to 89 pre-treatment triple negative breast cancer samples secured in the clinical trial described in Example 1. Following RNAseq data procurement, the data was cleaned and homogenized by reconciling gene and sample names across data sources. […] In short, samples in the resulting TCGA expression data were randomly down-sampled to more closely reflect the abundance of PAM50 classes within the clinical trial data (previously derived, see Example 1, Table 7). […]
Survival and response rates between treatment groups within pre-defined immune response groups were determined using a series of pair-wise, two-group tests based on the data derived in the G1T28-04 clinical trial described in Example 1. Additionally, examination of differences in survival and response rates between different immune response categories within a single treatment group were analyzed. […]

[3] = system: PD-L1 positive or negative TNBC tumors; assay: G1T28-04 overall survival by PD-L1 tumor status (Ventana SP142); format: in vivo, human; conditions: p=0.005
Procedure: Patient tumors from the G1T28-04 clinical trial described in Example 1 were characterized based on PD-L1 expression scored as negative or positive if <1% or ≥1% of the total tumor area contained PD-L1-labelled immune cells, respectively, using the Ventana SP142 assay. Association of PD-L1 expression with antitumor efficacy was assessed using proportional hazards regression. The groups are divided as follows: Group 1 (gemcitabine+carboplatin only on days 1 and 8 in a 21-day cycles), Group 2 (gemcitabine+carboplatin+trilaciclib on days 1 and 8 in a 21 day cycle), and Group 3 (gemcitabine+carboplatin on days 2 and 9+trilaciclib on days 1, 2, 8, and 9 in a 21-day cycle).

CD8+ T cells = format: cell-based, human; conditions: mTNBC patients
[4] = system: T-cell clones (T-cell receptor β sequences); assay: Phase 2 NCT03041311 (E/P/A with or without trilaciclib): TCRB differential abundance analysis in whole blood; format: in vivo, human; conditions: for T-cell clonal expansion in responders: trilaciclib responders vs placebo responders and vs trilaciclib non-responders (FIG. 12)
Procedure: (§1) A phase 2 study of carboplatin, etoposide, and atezolizumab with or without trilaciclib in patients with untreated extensive stage small cell lung cancer was initiated (Clinicaltrials.gov identifier NCT03041311). […] a 21-day induction phase and a 21-day maintenance phase. Four induction phase cycles were completed prior to the initiation of the maintenance phase cycle.
In the induction phase, patients received trilaciclib (240 mg/m2 diluted in 250 mL D5W or sodium chloride solution 0.9%) or placebo (250 mL of D5W or sodium chloride solution 0.9%) administered IV once daily on days 1 to 3 of a 21-day cycle of each etoposide/carboplatin/atezolizumab (E/P/A) therapy cycle (up to 4 cycles in total). […] Atezolizumab (1200 mg) in 250 mL sodium chloride solution 0.9% was administered as an IV infusion on day 1 of each 21-day cycle in both the induction and maintenance phases. Atezolizumab was infused over 60 minutes for the first administration and, if tolerated, all subsequent infusions were delivered over 30 minutes. Atezolizumab was administered following the completion of administration of Compound I or placebo, etoposide, and carboplatin.
Analysis of the TCRB locus in blood samples was performed to identify biomarkers of immune response and immunomodulatory activity between the trilaciclib arm and the placebo arm. All samples were sequenced using a 1-rxn TCRB Assay. The number of expanded T-cell clones was determined by the differential abundance analysis of T-cell receptor β sequences in whole blood from patients at after induction and prior to starting maintenance versus baseline.

[5] = system: extensive stage small cell lung cancer; assay: Phase 2 NCT03041311: overall survival by newly expanded clone fraction; format: in vivo, human; conditions: SCLC patients on E/P/A above the newly expanded clone fraction median; p=0.04
Procedure: as §1
. […] Atezolizumab (1200 mg) in 250 mL sodium chloride solution 0.9% was administered as an IV infusion on day 1 of each 21-day cycle in both the induction and maintenance phases. Atezolizumab was infused over 60 minutes for the first administration and, if tolerated, all subsequent infusions were delivered over 30 minutes. Atezolizumab was administered following the completion of administration of Compound I or placebo, etoposide, and carboplatin.

[6] = system: TNBC tumors categorized as CDK4/6 independent, dependent or indeterminate; assay: G1T28-04 subgroup analysis by CDK4/6 dependency signature (PAM50, Lehmann)
Description: Using two established signatures (Prosigna Breast Cancer Prognostic Gene Signature Assay [PAM50] and Lehmann triple-negative breast cancer type 1-4), patient tumors were characterized as CDK4/6 independent, dependent, or indeterminate. […] Because their reliance on the CDK4/6 pathway for proliferation is either unknown or heterogeneous, the remaining PAM50 signature groups (including HER2, normal-like, luminal A, and luminal B) are categorized as CDK4/6 indeterminate.
To address the theoretical risk that trilaciclib could decrease antitumor activity in patients with CDK4/6 dependent tumors by arresting CDK4/6-dependent tumor cells during chemotherapy, an additional prespecified subgroup analysis of the antitumor activity endpoints (objective response, progression-free survival, and overall survival) using two established signatures (PAM50 and Lehmann triple-negative breast cancer type 1-4) was performed to characterize patient tumors as CDK4/6 independent, dependent, or indeterminate.

CN1CCN(c2ccc(Nc3ncc4cc5n(c4n3)C3(CCCCC3)CNC5=O)nc2)CC1 [trilaciclib, 2′-((5-(4-methylpiperazin-1-yl)pyridin-2-yl)amino)-7′, 8′-dihydro-6′H-spiro(cyclohexane-1,9′-pyrazino(1′,2′:1,5)pyrrolo(2,3-d)pyrimidin)-6′-one]
Overall survival compared with Group 1 (not receiving trilaciclib) ([1]; TNBC with high Ayers Expanded Immune Signature score): significantly improved overall survival | Overall survival compared with Group 1 (not receiving trilaciclib) ([1]; TNBC with high Ayers IFN-γ Signature score, p=0.0194): significantly improved overall survival | Overall survival compared with Group 1 (not receiving trilaciclib) [2]: significantly improved overall survival | Overall survival compared with patients who did not receive trilaciclib [3]: statistically significant overall survival | Lymphocyte counts and T-cell activation (CD8+ T cells; addition of trilaciclib to gemcitabine and carboplatin): did not preserve lymphocyte counts or enhance T-cell activation | Frequency of CD8+ T cells producing IFN-γ after ex-vivo stimulation (CD8+ T cells; GC plus trilaciclib vs group 1 (FIG. 5)): higher frequency | Number of expanded T-cell clones ([4]; SCLC patients on E/P/A, trilaciclib vs E/P/A only, after induction vs baseline, P=0.01, FIG. 11): significantly higher | Number of newly expanded T-cell clones in responders ([4]; SCLC, E/P/A, responders receiving trilaciclib vs without, p=0.001, FIG. 13): more newly expanded clones | Fraction of newly expanded clones versus all expanded clones in responders ([4]; SCLC, E/P/A, responders receiving trilaciclib vs without, p=0.001, FIG. 14): significantly increased | T-cell clonal expansion in responders ([4]; SCLC, E/P/A): more T-cell clonal expansion | T-cell clonal expansion in responders ([4]; SCLC, E/P/A, listed as Trilaciclib): more clonal expansion | OS HR (trilaciclib versus placebo) [5]: 0.34 | Effect of including trilaciclib on chemotherapy efficacy ([6]; TNBC with variable or CDK4/6 dependent tumor (PAM50 Other or Lehmann LAR)): did not antagonize chemotherapy efficacy | Effect of including trilaciclib on chemotherapy efficacy ([6]; TNBC with variable or CDK4/6 independent tumor (PAM50 Basal-Like or Lehmann Other)): did not antagonize chemotherapy efficacy
